Reference: ChEMBL document CHEMBL5150061, “Design and Synthesis of Fibroblast Growth Factor Receptor (FGFR) and Histone Deacetylase (HDAC) Dual Inhibitors for the Treatment of Cancer” (J Med Chem, 2022)
One block for each compound: values may come before it. Calls of active or inactive are those of the source. The rule behind the calls is not given here.

What was measured:
Histone deacetylase 1 = Histone deacetylase 1 (Homo sapiens, UniProt Q13547); experiment: Inhibition of HDAC1 (unknown origin)
[1] = target: T1, Protein deacetylase HDAC6 (Homo sapiens, UniProt Q9UBN7); experiment: Inhibition of HDAC6 (unknown origin)
T1 sequence (Q9UBN7 whole entry): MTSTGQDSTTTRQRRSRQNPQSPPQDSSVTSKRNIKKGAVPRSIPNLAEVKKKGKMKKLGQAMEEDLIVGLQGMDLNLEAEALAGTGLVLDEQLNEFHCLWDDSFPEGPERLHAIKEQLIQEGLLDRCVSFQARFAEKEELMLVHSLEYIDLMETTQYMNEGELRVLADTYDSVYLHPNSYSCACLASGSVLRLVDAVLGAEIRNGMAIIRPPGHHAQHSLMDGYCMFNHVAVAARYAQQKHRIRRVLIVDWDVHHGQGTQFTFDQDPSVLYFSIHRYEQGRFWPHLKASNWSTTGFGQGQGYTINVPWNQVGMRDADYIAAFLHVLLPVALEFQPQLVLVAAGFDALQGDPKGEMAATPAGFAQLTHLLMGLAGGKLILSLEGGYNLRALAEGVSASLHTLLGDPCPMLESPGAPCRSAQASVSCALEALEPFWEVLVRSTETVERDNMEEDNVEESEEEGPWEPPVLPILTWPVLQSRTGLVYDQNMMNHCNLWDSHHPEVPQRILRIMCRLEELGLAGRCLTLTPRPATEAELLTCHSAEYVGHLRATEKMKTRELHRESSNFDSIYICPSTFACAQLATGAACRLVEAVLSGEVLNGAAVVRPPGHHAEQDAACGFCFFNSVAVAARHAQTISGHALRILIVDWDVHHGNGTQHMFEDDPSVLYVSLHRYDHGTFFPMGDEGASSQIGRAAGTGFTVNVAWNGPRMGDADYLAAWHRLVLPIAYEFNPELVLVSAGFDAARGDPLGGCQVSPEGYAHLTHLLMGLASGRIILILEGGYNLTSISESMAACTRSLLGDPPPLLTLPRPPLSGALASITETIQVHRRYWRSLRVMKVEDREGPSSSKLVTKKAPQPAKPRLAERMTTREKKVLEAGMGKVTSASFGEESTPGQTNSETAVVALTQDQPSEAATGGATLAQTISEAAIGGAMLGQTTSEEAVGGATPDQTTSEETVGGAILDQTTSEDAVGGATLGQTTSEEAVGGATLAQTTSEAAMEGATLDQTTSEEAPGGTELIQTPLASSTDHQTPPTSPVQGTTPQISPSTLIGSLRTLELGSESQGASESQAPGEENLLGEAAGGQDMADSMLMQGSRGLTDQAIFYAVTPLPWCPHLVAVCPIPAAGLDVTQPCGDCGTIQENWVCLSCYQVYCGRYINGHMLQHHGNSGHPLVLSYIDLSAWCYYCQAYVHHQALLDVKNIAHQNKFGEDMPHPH

[2] = target: Fibroblast growth factor receptor 4 (Homo sapiens, UniProt P22455); experiment: Inhibition of FGFR4 (unknown origin)
[3] = target: Fibroblast growth factor receptor 2 (Homo sapiens, UniProt P21802); experiment: Inhibition of FGFR2 (unknown origin)
[4] = target: Fibroblast growth factor receptor 3 (Homo sapiens, UniProt P22607); experiment: Inhibition of FGFR3 (unknown origin)
Histone deacetylase 8 = target: T2, Histone deacetylase 8 (Homo sapiens, UniProt Q9BY41); experiment: Inhibition of HDAC8 (unknown origin)
T2 sequence (Q9BY41 whole entry): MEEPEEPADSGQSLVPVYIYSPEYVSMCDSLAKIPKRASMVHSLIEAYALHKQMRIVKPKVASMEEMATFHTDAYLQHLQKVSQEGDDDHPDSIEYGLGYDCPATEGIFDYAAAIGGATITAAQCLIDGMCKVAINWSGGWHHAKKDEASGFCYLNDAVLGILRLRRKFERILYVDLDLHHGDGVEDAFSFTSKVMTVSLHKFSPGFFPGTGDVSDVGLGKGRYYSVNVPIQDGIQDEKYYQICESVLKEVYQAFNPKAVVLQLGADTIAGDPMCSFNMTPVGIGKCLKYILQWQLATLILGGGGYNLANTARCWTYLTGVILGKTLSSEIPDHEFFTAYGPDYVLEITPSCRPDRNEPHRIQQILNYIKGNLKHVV

K562 = experiment: cells; assay type: functional, cell-based; conditions: Homo sapiens, K562, 72 h
SNU-16 [5] = conditions: Homo sapiens, dose 1-100 nM, time 36.0 hrs
HCT-116 = experiment: cells; assay type: functional, cell-based; conditions: Homo sapiens, HCT-116, 72 h
cells = assay type: functional, cell-based; conditions: Homo sapiens, KATO III, 72 h
SNU-16 [6] = conditions: Homo sapiens, dose 1-100 nM, time 36.0 hrs; remark: listed apart in the source
Jurkat = experiment: cells; assay type: functional, cell-based; conditions: Homo sapiens, 72 h
SNU-16 [7] = experiment: cells; assay type: functional, cell-based; conditions: Homo sapiens, SNU-16, 72 h
A2780 = experiment: cells; assay type: functional, cell-based; conditions: Homo sapiens, A2780, 72 h
SNU-16 [8] = experiment: Induction of apoptosis in human SNU-16 cells assessed as dead cells at 0.3 uM incubated for 72 hrs by annexin-V/FITC propidium iodide staining based flow cytometry analysis (reference value: […]); assay type: functional
SNU-16 [9] = experiment: Induction of apoptosis in human SNU-16 cells assessed as late apoptotic cells at 0.03 uM incubated for 72 hrs by annexin-V/FITC propidium iodide staining based flow cytometry analysis (reference value: 3.41%); assay type: functional
SNU-16 [10] = experiment: Induction of apoptosis in human SNU-16 cells assessed as dead cells at 0.1 uM incubated for 72 hrs by annexin-V/FITC propidium iodide staining based flow cytometry analysis (reference value: […]); assay type: functional
SNU-16 [11] = experiment: Induction of apoptosis in human SNU-16 cells assessed as late apoptotic cells at 1 uM incubated for 72 hrs by annexin-V/FITC propidium iodide staining based flow cytometry analysis (reference value: 3.41%); assay type: functional
SNU-16 [12] = experiment: Induction of apoptosis in human SNU-16 cells assessed as dead cells at 1 uM incubated for 72 hrs by annexin-V/FITC propidium iodide staining based flow cytometry analysis (reference value: […]); assay type: functional
SNU-16 [13] = experiment: Induction of apoptosis in human SNU-16 cells assessed as early apoptotic cells at 0.3 uM incubated for 72 hrs by annexin-V/FITC propidium iodide staining based flow cytometry analysis (reference value: 3.02%); assay type: functional
SNU-16 [14] = experiment: Induction of apoptosis in human SNU-16 cells assessed as late apoptotic cells at 0.1 uM incubated for 72 hrs by annexin-V/FITC propidium iodide staining based flow cytometry analysis (reference value: 3.41%); assay type: functional
SNU-16 [15] = experiment: Induction of apoptosis in human SNU-16 cells assessed as dead cells at 0.03 uM incubated for 72 hrs by annexin-V/FITC propidium iodide staining based flow cytometry analysis (reference value: […]); assay type: functional
SNU-16 [16] = experiment: Induction of apoptosis in human SNU-16 cells assessed as live cells at 0.3 uM incubated for 72 hrs by annexin-V/FITC propidium iodide staining based flow cytometry analysis (reference value: 90.92%); assay type: functional
SNU-16 [17] = experiment: Induction of apoptosis in human SNU-16 cells assessed as live cells at 1 uM incubated for 72 hrs by annexin-V/FITC propidium iodide staining based flow cytometry analysis (reference value: 90.92%); assay type: functional
SNU-16 [18] = experiment: Induction of apoptosis in human SNU-16 cells assessed as live cells at 0.03 uM incubated for 72 hrs by annexin-V/FITC propidium iodide staining based flow cytometry analysis (reference value: 90.92%); assay type: functional
SNU-16 [19] = experiment: Induction of apoptosis in human SNU-16 cells assessed as early apoptotic cells at 0.1 uM incubated for 72 hrs by annexin-V/FITC propidium iodide staining based flow cytometry analysis (reference value: 3.02%); assay type: functional
SNU-16 [20] = experiment: Induction of apoptosis in human SNU-16 cells assessed as early apoptotic cells at 1 uM incubated for 72 hrs by annexin-V/FITC propidium iodide staining based flow cytometry analysis (reference value: 3.02%); assay type: functional
SNU-16 [21] = experiment: Induction of apoptosis in human SNU-16 cells assessed as live cells at 0.1 uM incubated for 72 hrs by annexin-V/FITC propidium iodide staining based flow cytometry analysis (reference value: 90.92%); assay type: functional
SNU-16 [22] = experiment: Induction of apoptosis in human SNU-16 cells assessed as early apoptotic cells at 0.03 uM incubated for 72 hrs by annexin-V/FITC propidium iodide staining based flow cytometry analysis (reference value: 3.02%); assay type: functional
[23] = Toxicity in BALB/c nude mouse xenografted with human HCT-116 cells assessed as reduction in body weight at 30 mg/kg/day, po administered for 18 days and measured every 3 days; assay type: organism-based; conditions: in vivo, 432 h, time 18 day
[24] = Toxicity in BALB/c nude mouse xenografted with human SNU-16 cells assessed as reduction in body weight at 50 mg/kg/day, ip administered for 18 days and measured every 3 days; assay type: organism-based; conditions: in vivo, 432 h, time 18 day
SNU-16 [25] = experiment: Induction of apoptosis in human SNU-16 cells assessed as late apoptotic cells at 0.3 uM incubated for 72 hrs by annexin-V/FITC propidium iodide staining based flow cytometry analysis (reference value: 3.41%); assay type: functional

Chain of Histone deacetylase 1 (Q13547 whole entry): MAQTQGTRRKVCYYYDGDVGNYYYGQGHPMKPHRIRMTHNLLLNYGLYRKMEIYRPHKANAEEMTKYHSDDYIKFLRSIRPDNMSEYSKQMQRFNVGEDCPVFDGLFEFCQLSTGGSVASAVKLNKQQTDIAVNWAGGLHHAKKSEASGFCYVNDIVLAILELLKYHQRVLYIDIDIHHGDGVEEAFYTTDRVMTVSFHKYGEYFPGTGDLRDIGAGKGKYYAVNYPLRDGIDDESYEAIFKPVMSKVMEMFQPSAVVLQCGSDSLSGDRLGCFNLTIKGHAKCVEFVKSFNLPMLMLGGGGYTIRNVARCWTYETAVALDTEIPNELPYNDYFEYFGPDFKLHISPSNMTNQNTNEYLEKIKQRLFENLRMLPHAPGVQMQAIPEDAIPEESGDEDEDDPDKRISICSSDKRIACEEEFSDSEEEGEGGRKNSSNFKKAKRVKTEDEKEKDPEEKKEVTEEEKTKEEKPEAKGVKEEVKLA
Chain of Fibroblast growth factor receptor 2 (P21802 whole entry): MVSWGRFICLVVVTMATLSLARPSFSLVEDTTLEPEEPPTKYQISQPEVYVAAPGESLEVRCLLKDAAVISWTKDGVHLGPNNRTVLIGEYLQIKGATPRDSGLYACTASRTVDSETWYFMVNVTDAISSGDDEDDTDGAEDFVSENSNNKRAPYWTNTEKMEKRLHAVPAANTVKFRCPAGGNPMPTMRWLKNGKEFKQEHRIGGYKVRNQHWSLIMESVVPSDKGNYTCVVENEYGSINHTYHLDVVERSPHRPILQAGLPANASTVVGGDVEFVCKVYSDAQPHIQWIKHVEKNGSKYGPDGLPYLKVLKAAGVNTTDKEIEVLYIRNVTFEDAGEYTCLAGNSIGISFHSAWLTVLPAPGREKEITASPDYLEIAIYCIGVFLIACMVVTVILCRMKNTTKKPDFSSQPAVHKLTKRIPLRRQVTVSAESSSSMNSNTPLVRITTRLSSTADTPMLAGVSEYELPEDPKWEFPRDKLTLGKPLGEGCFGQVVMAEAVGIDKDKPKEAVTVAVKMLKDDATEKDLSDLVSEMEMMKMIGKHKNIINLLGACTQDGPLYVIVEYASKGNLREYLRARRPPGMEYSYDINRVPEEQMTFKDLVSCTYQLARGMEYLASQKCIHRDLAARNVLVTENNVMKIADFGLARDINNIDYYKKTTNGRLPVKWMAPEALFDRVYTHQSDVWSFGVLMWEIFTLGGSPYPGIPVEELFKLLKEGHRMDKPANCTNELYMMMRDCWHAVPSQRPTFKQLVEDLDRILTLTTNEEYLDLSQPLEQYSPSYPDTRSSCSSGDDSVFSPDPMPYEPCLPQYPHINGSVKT
Chain of Fibroblast growth factor receptor 3 (P22607 whole entry): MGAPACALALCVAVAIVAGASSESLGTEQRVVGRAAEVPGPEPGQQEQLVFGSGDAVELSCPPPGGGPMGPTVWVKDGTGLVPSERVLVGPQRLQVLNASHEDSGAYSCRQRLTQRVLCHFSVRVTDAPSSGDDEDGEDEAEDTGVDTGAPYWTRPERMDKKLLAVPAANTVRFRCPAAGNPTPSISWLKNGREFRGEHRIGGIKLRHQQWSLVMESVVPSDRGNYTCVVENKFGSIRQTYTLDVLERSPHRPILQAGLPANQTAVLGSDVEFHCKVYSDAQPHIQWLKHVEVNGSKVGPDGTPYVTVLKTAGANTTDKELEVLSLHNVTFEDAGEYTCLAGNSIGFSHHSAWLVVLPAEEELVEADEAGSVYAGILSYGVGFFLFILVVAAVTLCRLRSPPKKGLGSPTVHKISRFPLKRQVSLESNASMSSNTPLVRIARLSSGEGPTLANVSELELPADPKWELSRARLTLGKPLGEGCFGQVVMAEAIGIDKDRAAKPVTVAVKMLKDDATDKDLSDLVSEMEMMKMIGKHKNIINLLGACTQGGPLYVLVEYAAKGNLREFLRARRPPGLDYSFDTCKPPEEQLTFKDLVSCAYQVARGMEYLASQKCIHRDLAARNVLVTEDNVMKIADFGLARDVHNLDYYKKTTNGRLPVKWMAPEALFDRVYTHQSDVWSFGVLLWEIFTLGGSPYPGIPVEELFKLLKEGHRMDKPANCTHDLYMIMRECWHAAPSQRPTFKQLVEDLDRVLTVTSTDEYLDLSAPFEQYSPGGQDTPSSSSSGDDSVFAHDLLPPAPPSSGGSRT
Chain of Fibroblast growth factor receptor 4 (P22455 whole entry): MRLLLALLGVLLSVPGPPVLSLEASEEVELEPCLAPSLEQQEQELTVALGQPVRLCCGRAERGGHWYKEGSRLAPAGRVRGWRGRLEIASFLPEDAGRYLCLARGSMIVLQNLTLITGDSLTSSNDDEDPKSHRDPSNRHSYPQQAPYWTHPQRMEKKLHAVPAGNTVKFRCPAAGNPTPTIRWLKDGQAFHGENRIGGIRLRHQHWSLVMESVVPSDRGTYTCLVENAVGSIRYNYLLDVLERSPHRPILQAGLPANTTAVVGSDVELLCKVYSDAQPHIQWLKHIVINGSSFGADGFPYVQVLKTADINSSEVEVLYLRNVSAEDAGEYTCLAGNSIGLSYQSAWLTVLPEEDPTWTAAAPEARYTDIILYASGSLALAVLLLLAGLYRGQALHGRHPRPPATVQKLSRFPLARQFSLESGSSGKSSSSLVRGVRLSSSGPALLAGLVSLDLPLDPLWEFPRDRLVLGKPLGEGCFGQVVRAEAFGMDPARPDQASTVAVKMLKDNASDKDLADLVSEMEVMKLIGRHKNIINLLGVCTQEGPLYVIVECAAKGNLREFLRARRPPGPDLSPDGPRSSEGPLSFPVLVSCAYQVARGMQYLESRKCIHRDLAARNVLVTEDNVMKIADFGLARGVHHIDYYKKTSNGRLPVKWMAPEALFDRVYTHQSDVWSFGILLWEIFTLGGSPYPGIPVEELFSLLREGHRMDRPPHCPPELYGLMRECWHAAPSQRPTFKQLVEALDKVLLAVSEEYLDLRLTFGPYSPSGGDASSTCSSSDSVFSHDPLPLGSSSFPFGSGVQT

SMILES: COc1cc(OC)cc(N(CC2CC2)c2ccc3ncc(-c4cnn(CCCCCCCC(=O)NO)c4)nc3c2)c1
IC50 (Histone deacetylase 1): 172 nM

SMILES: COc1cc(OC)cc(N(CCNC(C)C)c2ccc3ncc(-c4cnn(Cc5ccc(C(=O)NO)cc5)c4)nc3c2)c1
IC50 (Histone deacetylase 1): > 1000 nM

SMILES: COc1cc(OC)cc(N(CC2CC2)c2ccc3ncc(-c4cnn(CCCCC(=O)NO)c4)nc3c2)c1
IC50 (Histone deacetylase 1): 177 nM

SMILES: COc1cc(OC)cc(N(CCNC(C)C)c2ccc3ncc(-c4cnn(C)c4)nc3c2)c1 [ERDAFITINIB]
IC50 (K562): 3020 nM
inhibition (SNU-16 [5]): Active
IC50 (HCT-116): 4240 nM
IC50 (cells): 4 nM
inhibition (SNU-16 [6]): Dde
IC50 (Jurkat): 6810 nM
IC50 (SNU-16 [7]): 0.7 nM
IC50 (A2780): 20 nM

SMILES: COc1cc(OC)cc(N(CCNC(C)C)c2ccc3ncc(-c4cnn(CCCCCOc5ccc(C(=O)NO)cc5)c4)nc3c2)c1
IC50 (Histone deacetylase 1): 273 nM

SMILES: O=C(CCCCCCC(=O)Nc1ccccc1)NO [VORINOSTAT]
Activity (SNU-16 [8]): 6.4%
IC50 (K562): 2240 nM
Activity (SNU-16 [9]): 6.85%
Activity (SNU-16 [10]): 6.19%
Activity (SNU-16 [11]): 15.42%
Activity (SNU-16 [12]): 4.21%
Activity (SNU-16 [13]): 2.48%
Activity (SNU-16 [14]): 9.98%
Activity (SNU-16 [15]): 5.77%
Activity (SNU-16 [16]): 80.66%
Activity (SNU-16 [17]): 77.22%
Activity (SNU-16 [18]): 84.26%
Activity (SNU-16 [19]): 3.51%
Activity (SNU-16 [20]): 3.16%
Activity (SNU-16 [21]): 80.33%
Activity (SNU-16 [22]): 3.12%
Activity [23]: Non-Toxic
Activity [24]: Non-Toxic
Activity (SNU-16 [25]): 10.46%

Continued by falling IC50 (Histone deacetylase 1), values first:

IC50 (Histone deacetylase 1): 157 nM
IC50 [1]: 107 nM
SMILES: COc1cc(OC)cc(N(CCCCC(=O)NO)c2ccc3ncc(-c4cnn(C)c4)nc3c2)c1

IC50 (Histone deacetylase 1): 6.3 nM
SMILES: COc1cc(OC)cc(N(CCNC(C)C)c2ccc3ncc(-c4cnn(CCCCCCCC(=O)NO)c4)nc3c2)c1

IC50 (Histone deacetylase 1): 5.9 nM
IC50 [1]: 3.4 nM
IC50 [2]: 1.3 nM
IC50 [3]: 1.9 nM
IC50 [4]: 0.62 nM
IC50 (Histone deacetylase 8): 288 nM
SMILES: COc1cc(OC)cc(N(CCNC(C)C)c2ccc3ncc(-c4cnn(CCOc5ccc(C(=O)NO)cc5)c4)nc3c2)c1

IC50 (Histone deacetylase 1): 5.8 nM
IC50 [1]: 13 nM
SMILES: COc1cc(OC)cc(N(CCCCCCC(=O)NO)c2ccc3ncc(-c4cnn(C)c4)nc3c2)c1

IC50 (Histone deacetylase 1): 4.4 nM
SMILES: COc1cc(OC)cc(N(CCNC(C)C)c2ccc3ncc(-c4cnn(CCCCCC(=O)NO)c4)nc3c2)c1
